{
  "source": "patent US6914045B2",
  "about": "“Glycopeptide antibiotics” (Wyeth Holdings Corporation, priority 2001, dated 2005)",
  "key": {"[1]": {"system": "Enterococcus sp.", "assay": "in vitro antibacterial evaluation, MIC by broth dilution", "format": "cell-based", "details": "broth dilution, 18 hours at 35° C.", "how_it_was_run": "(§1)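 Following National Committee for Clinical Laboratory Standards recommendations (M7-A2), susceptibility was measured by dilution in Muller-Hinton II […]. Bacteria were seeded at 5×10^5 CFU/mL against compound concentrations from 64 down to 0.06 μg/mL.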"}, "[2]": {"system": "Streptococcus sp.", "assay": "in vitro antibacterial evaluation, MIC by broth dilution", "format": "cell-based", "details": "broth dilution, 18 hours at 35° C.", "how_it_was_run": "as §1"}, "[3]": {"system": "Staphylococcus sp.", "assay": "in vitro antibacterial evaluation, MIC by broth dilution", "format": "cell-based", "details": "broth dilution, 18 hours at 35° C.", "how_it_was_run": "as §1"}, "[4]": {"assay": "clinical pathology (serum clinical chemistry) in mice", "format": "in vivo", "details": "CD-1 mice, 20 mg/kg intravenously daily for 9 days, sera day 10", "method": "20-day-old CD-1 mice were divided into a vehicle control group (5 mice) and a treatment group (5 mice). Samples of glycopeptide antibiotics were administered at 20 mg/kg intravenously daily for 9 days."}, "[5]": {"system": "Escherichia coli", "assay": "in vitro antibacterial evaluation, MIC by broth dilution", "format": "cell-based", "details": "18 hours at 35° C.", "how_it_was_run": "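Broth dilution in Muller-Hinton II medium per NCCLS standard M7-A2, with an inoculum of 5×10^5 CFU/mL and antibiotic tested over 64-0.06 μg/mL. MIC was taken as the lowest concentration inhibiting visible growth.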"}, "[6]": {"assay": "anatomic pathology (histopathology of heart and kidney) in mice", "format": "in vivo", "details": "CD-1 mice, 20 mg/kg intravenously daily for 9 days, necropsy day 10, microscopic histopathology", "method": "Samples of tissues from necropsied mice were formalin-fixed, paraffin-embedded, sectioned, stained with hematoxylin and eosin, and examined microscopically. Histopathologic findings were recorded. These findings were subjectively graded on a scale corresponding to slight, mild, moderate, marked and severe as compared to untreated controls."}},
  "data": [
    {"smiles": "CC(c1ccccc1)C1NC(=O)CNC(=O)C(CO)NC(=O)C(C(O)C2CN(Cc3ccccc3-c3ccccc3)C(=N)N2C2OC(CO)C(O)C(O)C2O)NC(=O)C(C(O)C2CNC(=N)N2)NC(=O)C(Cc2ccc(OC3OC(CO)C(OC4OC(CO)C(O)C(O)C4O)C(O)C3O)cc2)NC1=O", "note": "(centres unmarked) [Example 65]", "values": [
      {"measurement": "MIC Enterococcus avium (GC 4558)", "setting": "[1]; Enterococcus avium (GC 4558)", "value": 128, "unit": "µg/mL"},
      {"measurement": "MIC Enterococcus faecalis (ATCC 29212)", "setting": "[1]; Enterococcus faecalis (ATCC 29212)", "value": ">128", "unit": "µg/mL"},
      {"measurement": "MIC Enterococcus faecalis (GC 4552)", "setting": "[1]; Enterococcus faecalis (GC 4552)", "value": ">128", "unit": "µg/mL"},
      {"measurement": "MIC Enterococcus faecalis (GC 4553)", "setting": "[1]; Enterococcus faecalis (GC 4553)", "value": 128, "unit": "µg/mL"},
      {"measurement": "MIC Enterococcus faecalis (GC 4554)", "setting": "[1]; Enterococcus faecalis (GC 4554)", "value": ">128", "unit": "µg/mL"},
      {"measurement": "MIC Enterococcus faecalis (GC 6189)", "setting": "[1]; Enterococcus faecalis (GC 6189)", "value": ">128", "unit": "µg/mL"},
      {"measurement": "MIC Enterococcus faecium (GC 2243)", "setting": "[1]; Enterococcus faecium (GC 2243)", "value": 128, "unit": "µg/mL"},
      {"measurement": "MIC Enterococcus faecium (GC 4556)", "setting": "[1]; Enterococcus faecium (GC 4556)", "value": ">128", "unit": "µg/mL"},
      {"measurement": "MIC Enterococcus faecium (GC 4557)", "setting": "[1]; Enterococcus faecium (GC 4557)", "value": 128, "unit": "µg/mL"},
      {"measurement": "MIC Enterococcus avium (GC 4558)", "setting": "[1]", "value": 128, "unit": "µg/mL"},
      {"measurement": "MIC Enterococcus faecalis (ATCC 29212)", "setting": "[1]", "value": ">128", "unit": "µg/mL"},
      {"measurement": "MIC Enterococcus faecalis (GC 2242)", "setting": "[1]", "value": ">128", "unit": "µg/mL"},
      {"measurement": "MIC Enterococcus faecalis (GC 2691)", "setting": "[1]", "value": ">128", "unit": "µg/mL"},
      {"measurement": "MIC Enterococcus faecalis (GC 3059)", "setting": "[1]", "value": ">128", "unit": "µg/mL"},
      {"measurement": "MIC Enterococcus faecalis (GC 4552)", "setting": "[1]", "value": ">128", "unit": "µg/mL"},
      {"measurement": "MIC Enterococcus faecalis (GC 4553)", "setting": "[1]", "value": 128, "unit": "µg/mL"},
      {"measurement": "MIC Enterococcus faecalis (GC 4554)", "setting": "[1]", "value": ">128", "unit": "µg/mL"},
      {"measurement": "MIC Enterococcus faecalis (GC 6189)", "setting": "[1]", "value": ">128", "unit": "µg/mL"},
      {"measurement": "MIC Enterococcus faecium (GC 2243)", "setting": "[1]", "value": 128, "unit": "µg/mL"},
      {"measurement": "MIC Enterococcus faecium (GC 4556)", "setting": "[1]", "value": ">128", "unit": "µg/mL"},
      {"measurement": "MIC Enterococcus faecium (GC 4557)", "setting": "[1]", "value": 128, "unit": "µg/mL"},
      {"measurement": "MIC Enterococcus faecalis (GC 2242)", "setting": "[1]; strain GC 2242", "value": ">128", "unit": "µg/mL"},
      {"measurement": "MIC Enterococcus faecalis (GC 2691)", "setting": "[1]; strain GC 2691", "value": ">128", "unit": "µg/mL"},
      {"measurement": "MIC Enterococcus faecalis (GC 3059)", "setting": "[1]; strain GC 3059", "value": ">128", "unit": "µg/mL"},
      {"measurement": "MIC Streptococcus agalactiae (GC 4564)", "setting": "[2]", "value": ">128", "unit": "µg/mL"},
      {"measurement": "MIC Streptococcus pneumoniae (ATCC 6301)", "setting": "[2]", "value": 128, "unit": "µg/mL"},
      {"measurement": "MIC Streptococcus pneumoniae (GC 1894)", "setting": "[2]", "value": 128, "unit": "µg/mL"},
      {"measurement": "MIC Streptococcus pneumoniae (GC 4565)", "setting": "[2]", "value": 128, "unit": "µg/mL"},
      {"measurement": "MIC Streptococcus pyogenes (GC 4563)", "setting": "[2]", "value": 128, "unit": "µg/mL"},
      {"measurement": "MIC Streptococcus pneumoniae (ATCC 6301)", "setting": "[2]; strain ATCC 6301", "value": 128, "unit": "µg/mL"},
      {"measurement": "MIC Streptococcus pneumoniae (GC 1894)", "setting": "[2]; strain GC 1894", "value": 128, "unit": "µg/mL"},
      {"measurement": "MIC Streptococcus pyogenes (GC 4563)", "setting": "[2]; strain GC 4563", "value": 128, "unit": "µg/mL"},
      {"measurement": "MIC Streptococcus agalactiae (GC 4564)", "setting": "[2]; strain GC 4564", "value": ">128", "unit": "µg/mL"},
      {"measurement": "MIC Streptococcus pneumoniae (GC 4565)", "setting": "[2]; strain GC 4565", "value": 128, "unit": "µg/mL"},
      {"measurement": "MIC Staphylococcus aureus (ATCC 29213)", "setting": "[3]; strain ATCC 29213", "value": ">128", "unit": "µg/mL"},
      {"measurement": "MIC Staphylococcus aureus (GC 1131)", "setting": "[3]; strain GC 1131", "value": ">128", "unit": "µg/mL"},
      {"measurement": "MIC Staphylococcus aureus (GC 3051)", "setting": "[3]; strain GC 3051", "value": ">128", "unit": "µg/mL"},
      {"measurement": "MIC Staphylococcus aureus (GC 3053)", "setting": "[3]; strain GC 3053", "value": ">128", "unit": "µg/mL"},
      {"measurement": "MIC Staphylococcus aureus (GC 4541)", "setting": "[3]; strain GC 4541", "value": ">128", "unit": "µg/mL"},
      {"measurement": "MIC Staphylococcus aureus (GC 4542)", "setting": "[3]; strain GC 4542", "value": ">128", "unit": "µg/mL"},
      {"measurement": "MIC Staphylococcus aureus-SMITH (GC 4543)", "setting": "[3]; strain GC 4543", "value": ">128", "unit": "µg/mL"},
      {"measurement": "MIC Staphylococcus aureus (GC 4544)", "setting": "[3]; strain GC 4544", "value": ">128", "unit": "µg/mL"},
      {"measurement": "MIC Staphylococcus aureus (GC 4545)", "setting": "[3]; strain GC 4545", "value": ">128", "unit": "µg/mL"},
      {"measurement": "MIC Staphylococcus haemolyticus (GC 4546)", "setting": "[3]; strain GC 4546", "value": ">128", "unit": "µg/mL"},
      {"measurement": "MIC Coagulase Negative Staphylococcus (GC 4547)", "setting": "[3]; strain GC 4547", "value": ">128", "unit": "µg/mL"},
      {"measurement": "MIC Coagulase Negative Staphylococcus (GC 4548)", "setting": "[3]; strain GC 4548", "value": ">128", "unit": "µg/mL"},
      {"measurement": "MIC Coagulase Negative Staphylococcus (GC 4549)", "setting": "[3]; strain GC 4549", "value": ">128", "unit": "µg/mL"},
      {"measurement": "MIC Coagulase Negative Staphylococcus (GC 4551)", "setting": "[3]; strain GC 4551", "value": ">128", "unit": "µg/mL"},
      {"measurement": "Clinical Chemistry (Day 10) % of Control, ALT", "setting": "[4]", "value": "+196%"},
      {"measurement": "Clinical Chemistry (Day 10) % of Control, AST", "setting": "[4]", "value": "+182%"},
      {"measurement": "Clinical Chemistry (Day 10) % of Control, BUN", "setting": "[4]", "value": "+161%"},
      {"measurement": "MIC Escherichia coli (ATCC 25922)", "setting": "[5]", "value": ">128", "unit": "µg/mL"},
      {"measurement": "MIC Escherichia coli (GC 4559)", "setting": "[5]", "value": ">128", "unit": "µg/mL"},
      {"measurement": "MIC Escherichia coli (GC 4560)", "setting": "[5]", "value": 32, "unit": "µg/mL"},
      {"measurement": "Anatomical Pathology (Day 10), Heart", "setting": "[6]", "value": 0},
      {"measurement": "Anatomical Pathology (Day 10), Kidney", "setting": "[6]", "value": "+++"}
    ]}
  ]
}
